PubChem BioAssay AID330 (DTP/NCI, 2004)
Where “and” joins values, the source holds several entries; their conditions need not be identical. Identical values can stand only once. Inconclusive results and toxic doses are left out. The calls were made as follows: active = survival T/C of 150% or more; inactive = T/C below 125% in these data. Peptide text beside a SMILES is read from it. * marks the point of attachment. For = O=C*

System: P388 leukemia ip, CD2F1 mice, survival T/C
Experiment: NCI In Vivo Anticancer Drug Screen. Data for tumor model P388 Leukemia (intraperitoneal) in CD2F1 (CDF1) mice
Conditions: endpoint: median survival time, higher = longer survival
Method in brief: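 Mice carrying the transplanted tumor received test compound or vehicle. Survival was recorded in each group, and the value is the treated-group measurement divided by that of the vehicle-treated control group.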

[1] = dose: 100.0 mg/kg/injection, schedule: Q01DX001 (ip), vehicle: Klucel (hydroxypropylcellulose) (HPC)
[2] = dose: 200.0 mg/kg/injection, schedule: Q01DX001 (ip), vehicle: Klucel (hydroxypropylcellulose) (HPC)
[3] = dose: 400.0 mg/kg/injection, schedule: Q01DX001 (ip), vehicle: Klucel (hydroxypropylcellulose) (HPC)
[4] = dose: 25.0 mg/kg/injection, schedule: Q01DX009 (ip), vehicle: saline
[5] = dose: 50.0 mg/kg/injection, schedule: Q01DX009 (ip), vehicle: saline
[6] = dose: 12.5 mg/kg/injection, schedule: Q01DX009 (ip), vehicle: saline
[7] = dose: 50.0 mg/kg/injection, schedule: Q01DX009 (ip), vehicle: Klucel (hydroxypropylcellulose) (HPC)
[8] = dose: 100.0 mg/kg/injection, schedule: Q01DX009 (ip), vehicle: Klucel (hydroxypropylcellulose) (HPC)
[9] = dose: 50.0 mg/kg/injection, schedule: Q01DX005 (ip), vehicle: saline
[10] = dose: 100.0 mg/kg/injection, schedule: Q01DX005 (ip), vehicle: saline
[11] = dose: 200.0 mg/kg/injection, schedule: Q01DX005 (ip), vehicle: saline
[12] = dose: 50.0 mg/kg/injection, schedule: Q01DX005 (ip), vehicle: saline with Tween-80
[13] = dose: 100.0 mg/kg/injection, schedule: Q01DX005 (ip), vehicle: saline with Tween-80
[14] = dose: 200.0 mg/kg/injection, schedule: Q01DX005 (ip), vehicle: saline with Tween-80
[15] = dose: 60.0 mg/kg/injection, schedule: Q01DX005 (ip), vehicle: saline with Tween-80
[16] = dose: 120.0 mg/kg/injection, schedule: Q01DX005 (ip), vehicle: saline with Tween-80
[17] = dose: 240.0 mg/kg/injection, schedule: Q01DX005 (ip), vehicle: saline with Tween-80

Measured: T/C

c1ccc2c(SCCCCCCCCSc3c4ccccc4nc4ccccc34)c3ccccc3nc2c1
inactive: dose: 60.0 mg/kg/injection, schedule: Q01DX005 (ip), vehicle: Klucel (hydroxypropylcellulose) (HPC) 101 % of control | dose: 120.0 mg/kg/injection, schedule: Q01DX005 (ip), vehicle: Klucel (hydroxypropylcellulose) (HPC) 86 % of control | dose: 240.0 mg/kg/injection, schedule: Q01DX005 (ip), vehicle: Klucel (hydroxypropylcellulose) (HPC) 86 % of control

Clc1ccc2c(ccc3ccc(Cl)nc32)n1
inactive: dose: 25.0 mg/kg/injection, schedule: Q04DX002 (ip), vehicle: saline with Tween-80 100 % of control | dose: 50.0 mg/kg/injection, schedule: Q04DX002 (ip), vehicle: saline with Tween-80 98 % of control | dose: 100.0 mg/kg/injection, schedule: Q04DX002 (ip), vehicle: saline with Tween-80 89 % of control

CCOc1nc(C(=O)O)cc2sccc12
inactive: [1] 90 % of control | [2] 93 % of control | [3] 88 % of control

O=C(CNC(=O)c1ccccc1)Nc1ccccc1
inactive: [4] 115 % of control | [5] 103 % of control | dose: 100.0 mg/kg/injection, schedule: Q01DX009 (ip), vehicle: saline 94 % of control | dose: 200.0 mg/kg/injection, schedule: Q01DX009 (ip), vehicle: saline 104 % of control

N=C(N)C1CC1
inactive: [6] 100 % of control | [4] 100 % of control | [5] 102 % of control

CN1Cc2c(N)cccc2C(c2ccccc2)C1 (configuration not stated)
inactive: [7] 96 % of control | [8] 105 % of control

O=NN(C(=O)NCc1cccnc1)C1CCCCC1
inactive: dose: 25.0 mg/kg/injection, schedule: Q01DX001 (ip), vehicle: distilled water + Tween-80 115 % of control | dose: 50.0 mg/kg/injection, schedule: Q01DX001 (ip), vehicle: distilled water + Tween-80 110 % of control | dose: 100.0 mg/kg/injection, schedule: Q01DX001 (ip), vehicle: distilled water + Tween-80 106 % of control | dose: 200.0 mg/kg/injection, schedule: Q01DX001 (ip), vehicle: distilled water + Tween-80 102 % of control | dose: 400.0 mg/kg/injection, schedule: Q01DX001 (ip), vehicle: distilled water + Tween-80 102 % of control

Clc1nc2ccccc2nc1CI
inactive: dose: 2.66 mg/kg/injection, schedule: Q01DX009 (ip), vehicle: other 119 % of control | dose: 4.0 mg/kg/injection, schedule: Q01DX009 (ip), vehicle: other 119 % of control | dose: 6.0 mg/kg/injection, schedule: Q01DX009 (ip), vehicle: other 119 % of control | dose: 9.0 mg/kg/injection, schedule: Q01DX009 (ip), vehicle: other 114 % of control

CCOCCN(CCOCC)c1ncnc2nc[nH]c12
inactive: [9] 102 % of control | [10] 102 % of control | [11] 98 % of control

O=C(NC(=O)c1ccccc1F)Nc1ccc(C(O)(C(F)(F)F)C(F)(F)F)cc1
inactive: [12] 104 % of control | [13] 98 % of control | [14] 100 % of control

c1ccc(CN2COC3CCCCC32)cc1 (configuration not stated)
inactive: dose: 25.0 mg/kg/injection, schedule: Q01DX005 (ip), vehicle: saline 107 % of control and 108 % of control | [9] 101 % of control and 105 % of control and 119 % of control | [10] 101 % of control and 107 % of control and 121 % of control | [11] 103 % of control and 105 % of control

CC(C)(CO)NO
inactive: [9] 106 % of control | [10] 103 % of control | [11] 104 % of control

Cc1cc2cc(C)nc(C)c2c(C)n1
inactive: dose: 50.0 mg/kg/injection, schedule: Q01DX005 (ip), vehicle: Klucel (hydroxypropylcellulose) (HPC) 94 % of control | dose: 100.0 mg/kg/injection, schedule: Q01DX005 (ip), vehicle: Klucel (hydroxypropylcellulose) (HPC) 89 % of control | dose: 200.0 mg/kg/injection, schedule: Q01DX005 (ip), vehicle: Klucel (hydroxypropylcellulose) (HPC) 92 % of control

CNNC(=O)C(=O)n1ccnc1
inactive: [9] 104 % of control | [10] 103 % of control | [11] 101 % of control

CCc1nc(N)nc(N)c1-c1ccc(OC)c(N=[N+]=[N-])c1
inactive: [15] 97 % of control | [16] 100 % of control | [17] 117 % of control

Cc1cc(N2C(=O)CCSC2=S)ccc1F
inactive: [6] 101 % of control | [4] 108 % of control | [5] 108 % of control | dose: 50.0 mg/kg/injection, schedule: Q01DX009 (ip), vehicle: suspension in saline 91 % of control | dose: 100.0 mg/kg/injection, schedule: Q01DX009 (ip), vehicle: suspension in saline 94 % of control | dose: 200.0 mg/kg/injection, schedule: Q01DX009 (ip), vehicle: suspension in saline 88 % of control

CCCCCCCC#CC1(C(O)CC)Sc2ccccc2N1C (configuration not stated)
inactive: [15] 107 % of control | [16] 101 % of control | [17] 105 % of control

COC(=O)c1[nH]c(=O)c(C#N)c(C(=O)OC)c1C(=O)c1ccccc1
inactive: [15] 99 % of control | [16] 99 % of control | [17] 92 % of control

O=S(=O)([O-])NC1CCCCC1.O=S(=O)([O-])NC1CCCCC1.[Hg+2].[Hg+2].[Hg+2].[O-2].[O-2]
inactive: dose: 0.5 mg/kg/injection, schedule: Q04DX003 (ip), vehicle: saline 96 % of control | dose: 1.0 mg/kg/injection, schedule: Q04DX003 (ip), vehicle: saline 100 % of control | dose: 2.0 mg/kg/injection, schedule: Q04DX003 (ip), vehicle: saline 100 % of control

CCC(=NCCCCCCN=C(CC)c1cc(O)ccc1O)c1cc(O)ccc1O.[Fe]
inactive: [12] 88 % of control | [13] 89 % of control | [14] 91 % of control

CC(=O)Nc1c(C)cccc1C
inactive: dose: 25.0 mg/kg/injection, schedule: Q01DX009 (ip), vehicle: Klucel (hydroxypropylcellulose) (HPC) 93 % of control | [7] 100 % of control | [8] 97 % of control | dose: 200.0 mg/kg/injection, schedule: Q01DX009 (ip), vehicle: Klucel (hydroxypropylcellulose) (HPC) 103 % of control

O=C(CCCCCCCCc1ccccc1)c1c(O)cccc1O
inactive: dose: 6.0 mg/kg/injection, schedule: Q01DX009 (ip), vehicle: Klucel (hydroxypropylcellulose) (HPC) 95 % of control | dose: 12.0 mg/kg/injection, schedule: Q01DX009 (ip), vehicle: Klucel (hydroxypropylcellulose) (HPC) 88 % of control | dose: 24.0 mg/kg/injection, schedule: Q01DX009 (ip), vehicle: Klucel (hydroxypropylcellulose) (HPC) 97 % of control | dose: 48.0 mg/kg/injection, schedule: Q01DX009 (ip), vehicle: Klucel (hydroxypropylcellulose) (HPC) 97 % of control

CCOC(=S)/N=C1/SCS(=O)(=O)N1c1ccccc1
inactive: dose: 50.0 mg/kg/injection, schedule: Q04DX003 (ip), vehicle: saline with Tween-80 99 % of control | dose: 100.0 mg/kg/injection, schedule: Q04DX003 (ip), vehicle: saline with Tween-80 95 % of control | dose: 200.0 mg/kg/injection, schedule: Q04DX003 (ip), vehicle: saline with Tween-80 98 % of control

CN(C)c1ccc2c(c1)c1cc(N(C)C)ccc1n2Cc1ccccc1
inactive: [15] 102 % of control | [16] 94 % of control | [17] 98 % of control

O=C1c2cc(F)ccc2OC2CCON12 (configuration not stated)
inactive: [1] 97 % of control | [2] 97 % of control | [3] 103 % of control

CSCCC(NC(=O)C(Cc1ccccc1)NC=O)C(=O)O (stereo not drawn) (For-Phe-Met-OH; configuration not given here)
inactive: [12] 108 % of control | [13] 103 % of control | [14] 104 % of control
